The text below walks through data of ChEMBL document CHEMBL1130350, “Heteroaryl analogues of AMPA. Synthesis and quantitative structure-activity relationships” (J Med Chem, 1997).

A word on the IC50: it is the concentration that inhibits the measured activity by half. The EC50 is the concentration at which the effect is half-maximal. A higher EC50 goes with a less potent agent. In general, pKa refers to the pH at which an ionisable group is half protonated.

Series [1] has as its target Glutamate receptor ionotropic kainate.
Description: In vitro binding affinity against Ionotropic glutamate receptor kainate (kainic acid) using [3H]KAIN as radioligand
Series [2] is filed under the species Rattus norvegicus. The series can be described thus: Electrophysiological study in rat cortical slice model. In kind it is functional.
Series [3] concerns the target Glutamate receptor ionotropic AMPA (Rattus norvegicus).
Series [4] deals with Glutamate [NMDA] receptor. The series can be described thus: In vitro binding affinity against N-methyl-D-aspartate glutamate receptor using [3H]-[…] as radioligand. Format: protein-complex assay.
Series [5] in a line: pKa value determined by potentiometric titrations. 4.4 is the equivalence volume; initial titrant volume is 9.8. Format: physicochemical.
A short description of series [6]: pKa value determined by potentiometric titrations. 5.1 is the equivalence volume; initial titrant volume is 9.4. Format: physicochemical.
Series [7] can be described thus: pKa value determined by potentiometric titrations. 4.6 is the equivalence volume; initial titrant volume is 10.2. In kind it is physicochemical.
A short description of series [8]: pKa value determined by potentiometric titrations. 4.5 is the equivalence volume; initial titrant volume is 9.5. In kind it is physicochemical.
Series [9] is described as follows: pKa value determined by potentiometric titrations. 4.6 is the equivalence volume; initial titrant volume is 9.5. Format: physicochemical.
The nature of series [10]: pKa value determined by potentiometric titrations. 5 is the equivalence volume; initial titrant volume is 9.6. In kind it is physicochemical.
A short description of series [11]: pKa value determined by potentiometric titrations. 5 is the equivalence volume; initial titrant volume is 9.7. Format: physicochemical.
Series [12] in a line: pKa value determined by potentiometric titrations. 4.9 is the equivalence volume; initial titrant volume is 9.7. Format: physicochemical.
The nature of series [13]: pKa value determined by potentiometric titrations. 5.3 is the equivalence volume; initial titrant volume is 9.8. In kind it is physicochemical.

Regarding `NC(Cc1c(O)noc1-c1nccs1)C(=O)O` (stereo unspecified), the IC50 was 4.9 µM in [1], 0.094 µM in series [3] and over 100 µM in series [4]. Also, in [2], the EC50 was found to be 2.3 µM. Besides, the pKa in series [5] is under 2.
Consider `Cn1nnnc1-c1onc(O)c1CC(N)C(=O)O` (stereo unspecified), for which the IC50 in series [1] was over 100 µM; in [3], 54 µM; in series [4], over 100 µM. For the same compound, in series [6], the pKa is 3.7. Also, the EC50 in [2] was over 1000 µM.
Turning to `NC(Cc1c(O)noc1-c1nc[nH]n1)C(=O)O` (stereo unspecified), the IC50 is 58 µM in [1], 1.5 µM in [3] and over 100 µM in series [4]. In series [2], this compound returned an EC50 of 63 µM. The pKa in series [7] is under 2.4.
With `Cn1ncnc1-c1onc(O)c1CC(N)C(=O)O` (stereo unspecified), the IC50 in [1] was 16 µM; in [3], 5.8 µM; in series [4], over 100 µM. The compound also returned an EC50 in series [2] of 93 µM. Also, the pKa in series [8] was under 2.3.
Consider `Cn1cnc(-c2onc(O)c2CC(N)C(=O)O)n1` (stereo unspecified), for which the figures for the IC50 in [1], in series [3] and in series [4] were over 100 µM, 0.7 µM and over 100 µM, respectively. Further, the EC50 in [2] turned out to be 11 µM. The pKa in series [9] is under 2.3.
Consider `Cn1nnc(-c2onc(O)c2CC(N)C(=O)O)n1` (stereo unspecified), for which the IC50 in [1] is 41 µM; in series [4] it was over 100 µM. Further, the pKa in series [10] stood at 2.9. In addition, in series [2], the EC50 stood at 0.92 µM.
As for `NC(Cc1c(O)noc1-c1nn[nH]n1)C(=O)O` (stereo unspecified), the IC50 in series [1] is over 100 µM; in series [3], 72 µM; in [4], over 100 µM. Also, in series [11], the pKa was under 3. The EC50 in series [2] is over 1000 µM.
Regarding `NC(Cc1c(O)noc1-c1ncc[nH]1)C(=O)O` (stereo unspecified), the IC50 in [1] is over 100 µM; in [3], 48 µM; in [4], over 100 µM. The compound also registered an EC50 in series [2] of 550 µM. In addition, the pKa in series [12] was under 3.4.
On to `Cn1ccnc1-c1onc(O)c1CC(N)C(=O)O` (stereo unspecified), for which the IC50 in series [1] is 74 µM; in series [3] it was over 100 µM; in series [4] it was over 100 µM. Moreover, the EC50 in [2] was over 1000 µM. Also, in series [13], the pKa is under 3.4.
`Cc1onc(O)c1CC(N)C(=O)O` [(R,S)-AMPA] returned an EC50 in [2] of 5.4 µM. In addition, in [4], the IC50 was over 100 µM.
